Assay [1] deals with T1, N-type calcium channel (Homo sapiens, UniProt Q00975).
T1 construct: Human neuroblastoma cell IMR-32 was obtained from ATCC (American Type Culture Collection); host or cells: IMR-32 human neuroblastoma cells, differentiated with dibutyl cAMP and bromodeoxyuridine
Nature of the assay: Activity of inhibiting N-type calcium channel (fluorescent dye method), IMR-32 cells. The class given is cell-based. As to conditions: fluorescent dye (fura-2) method, 60 mM KCl stimulation, 1 μM Nifedipine present; for IC50: read-out: N-type inhibition pIC50 (converted). The method, then: Activity of Inhibiting the Action of N-type Calcium Channel (Fluorescent Dye Method):
Human neuroblastoma cell IMR-32 was obtained from ATCC (American Type Culture Collection). The culture medium was prepared by adding 2 mM of L-glutamine (GIBCO), 1 mM of sodium pyruvate of pH 6.5 (GIBCO), a liquid antibiotic/antimicotic mixture (GIBCO) and 10% fetal calf serum (Cell Culture Technologies) to an Eagle minimum essential medium (GIBCO) free of Phenol Red and containing earle's salts supplyment. 3 ml of 1×10^5/ml IMR-32 cells was spread on a glass dish (Iwaki Glass Co., Ltd.) having a bottom diameter of 35 mm, which had been treated with poly-D-lysine (SIGMA) and also with collagen (COLLAGEN VITROGEN 100; a product of Collagen Co.). After the culture for 2 days, 1 mM (final concentration) of dibutyl cAMP and 2.5 μM of bromodeoxyuridine (SIGMA) were added to the culture mixture. After the culture for additional 10 to 14 days, the cells were used for the activity determination. The IMR-32 cell medium prepared as described above was replaced with Eagle minimum essential medium (GIBCO) containing 1 ml of 10 μM fura-2/AM (Dojin Kagaku Co.) and earle's salts supplyment but free of Phenol Red, and the incubation was conducted at 25° C. for one hour.
Then the medium was replaced with fura-2/AM-free Eagle minimum essential medium (GIBCO) free of Phenol Red and containing earle's salts supplyment. After conducting the incubation at 37° C. for one hour, the medium was replaced with a recording medium (comprising 20 mM of HEPES-KOH, 115 mM of NaCl, 5.4 mM of KCl, 0.8 mM of MgCl2, 1.8 mM of CaCl2 and 13.8 mM of D-glucose). The N-calcium channel inhibition activity was determined and analyzed with a fluorescent microscope (Nikon corporation) and an image analysis apparatus ARGUS 50 (Hamamatsu Photonics). Namely, a recording medium (comprising 20 mM of HEPES-KOH, 115 mM of NaCl, 5.4 mM of KCl, 0.8 mM of MgCl2, 1.8 mM of CaCl2 and 13.8 mM of D-glucose) containing 1 μM of Nifedipine was applied to the cells and refluxed by Y-tube method for 2 minutes. Then, a 60 mM potassium chloride-containing stimulating agent was rapidly given. Thereafter, 60 mM potassium chloride-containing stimulating agents which further contained 0.1, 1 or 10 μM of a test compound were rapidly and successively administered by Y-tube method to determine the channel inhibition activity. Finally, 60 mM potassium chloride-containing stimulating agent further containing 1 μM of omega conotoxin (Peptide Kenkyu-sho) was rapidly given by Y-tube method to realize 100% inhibition of the N-type calcium channel.

The next assay deals with T2, L-type calcium channel (Rattus norvegicus, UniProt P22002).
T2 construct: The slips of thoracic aorta extracted from Wistar rats were used; from tissue; host or cells: isolated thoracic aorta rings of Wistar rats, endothelium removed
Nature of the assay: Activity of inhibiting L-type calcium channel: relaxation of KCl contraction of isolated rat thoracic aorta. On the set-up: species or system Wistar rats. Conditions: for IC50: KCl contraction of isolated rat thoracic aorta, read-out: L-type inhibition IC50. Here is the method: Activity of Inhibiting the Action of L-type Calcium Channel
The activity of the dihydropyridine derivatives of the present invention to inhibit the action of L-type calcium channel was determined by the following method wherein the relaxation reaction on the KCl contraction of isolated thoracic aorta samples of rats was utilized.
1) Preparation of Isolated Thoracic Aorta Samples of Rats
The slips of thoracic aorta extracted from Wistar rats were used. Blood vessels were cut to form rings having a width of about 3 mm. The endothelial cells of the blood vessels were mechanically removed. The samples were suspended in a strain gauge in Tyrode solution (comprising 158.3 mM of NaCl, 4.0 mM of KCl, […] of MgCl2, 0.42 mM of NaH2PO4, 10 mM of NaHCO3, 2 mM of CaCl2 and 5 mM of glucose) in which a gaseous mixture of O2 (95%) and CO2 (5%) was introduced, to apply a stationary tension of 2 g. The tension of the blood vessel was recorded with a multipen recorder (Rikadenki Kogyo Co., Ltd.) by using a transducer after the amplification with a tension amplifier (EF-601G; Nihon Kohden Corporation). The experiments were conducted at 37° C.
2) Determination of Relaxation Reaction Against KCl contraction
After the tension was stabilized, the nutrient solution in the sample tank was replaced with High K^+ Tyrode solution (comprising 112.3 mM of NaCl, 50 mM of KCl, 1.05 mM of MgCl2, 0.42 mM of NaH2PO4, 10 mM of NaHCO3, 2 mM of CaCl2 and 5 mM of glucose) to cause the contraction reaction. 30 minutes after, the solution in the sample tank was replaced with normal Tyrode solution. Then, the solution in the sample tank was again replaced with High K^+ Tyrode solution and the contraction reaction was observed. After the maximum contraction reaction occurred, a test compound was cumulatively added to realize concentrations of 10^−9, 10^−8, 10^−7 and 10^−6 M at intervals of 90 minutes. The inhibition rate of the test compound on the maximum contraction reaction was employed as the index of the activity of inhibiting the action of L-type calcium channel.

The target in assay [2] is T3, N-type calcium channel (Rattus norvegicus, UniProt Q02294).
T3 construct: from tissue; host or cells: acutely dissociated sympathetic ganglion cells of Wistar rats (2 to 4 weeks old)
Nature of the assay: Inhibition activity of N-type calcium channel (patch clamp method), rat maxillary sympathetic ganglion cells. The class given is cell-based, Wistar rats. Conditions: 0.1 uM compound, whole cell voltage clamp, barium current. The method, then: Inhibition Activity of N-type Calcium Channel (Patch Clamp Method)
1) Preparation of Cells of Maxillary Sympathetic Ganglions of Rats
The cervix of each of Wistar rats (2 to 4 weeks old) was opened to expose the maxillary ganglions under anesthesia with pentobarbital. A pair of the ganglions were removed and immediately washed with Ca^2+-free Tyrode solution cooled with ice. Each ganglion was cut into 3 or 4 pieces and kept in the Ca^2+-free Tyrode solution for 15 minutes. Then, these pieces were treated with papain [Washington Biochemicals (lot#35J557); 20 U/ml] for 20 minutes and then with a mixture of 2-type collagenase [Washington Biochemicals (CLS2); 5900 U/ml]and dispase [Calbiochem (lot#1312973); 16 mg/ml] for one hour. After enzymatic treatment, the ganglion cells were mechanically isolated by pipetting. The isolated ganglion cells were used for the experiments within 6 hours.
2) Determination of Calcium Electric Current
The calcium electric current was determined by the whole cell voltage clamp method under the fixed membrane potential. The pipette electrode was pulled from glass tube (inner diameter: 1.5 mm; Narishige) in two stage of a vertical pipette puller (PB-7; Narishige). The ionic current was amplified with a patch amplifier (CEZ-2300; Nihon Kohden Corporation). The noises were cut at 10 kHz (E-3201B, NF Electronic Instrument) and then the ionic current was monitored on a storage oscilloscope (DS-9121, Iwatsu) and, at the same time, recorded with a DAT data recorder (RD-120TE, TEAC). Then it was passed through a 1 kHz filter and recorded in a computer (Compaq DeskPro) with pCLAMP software (Axon Instrument) of 3 kHz. All the experiments were performed at room temperature (25±2° C.). In the measurement of the current through the calcium channel, 10 mM barium (composition of the solution: shown below) was used in place of calcium as the charge carrier. The transmission of barium through the calcium channel was higher than that of calcium in the sympathetic ganglion cells, and the calcium-dependent channel inactivation was slight when barium was used.
The test compounds were rapidly administered by Y-tube method by Murase et al. [Brain Res. 525, 84 (1990)]. Each compound was dissolved in DMSO preparing 10 mM mother solution. At the highest drug concentration used, the vehicle (0.1%) had no significant effect on the calcium electric current.
Composition of Normal Tyrode's solution: NaCl; 143, KCl; 4, MgCl2; 0.5; CaCl2; 1.8, glucose; 5.5, NaH2PO4; 0.33, HEPES; 5 (Mm). The pH was adjusted to 7.4 with tris-OH.
Composition of Ca-free Tyrode's solution: the same as that of the Normal Tyrode's solution except that it was free of CaCl2.
External solution for the determination of calcium electric current (mM): TEACl; 144, CsCl;. […]
(In general: The patch-clamp technique gives a direct electrical read-out from membranes.)

Setting [3] is: 10^−7 M compound, inhibition rate on maximum KCl contraction of rat thoracic aorta.

Some results are limits rather than exact numbers.

T2 sequence (P22002 whole entry): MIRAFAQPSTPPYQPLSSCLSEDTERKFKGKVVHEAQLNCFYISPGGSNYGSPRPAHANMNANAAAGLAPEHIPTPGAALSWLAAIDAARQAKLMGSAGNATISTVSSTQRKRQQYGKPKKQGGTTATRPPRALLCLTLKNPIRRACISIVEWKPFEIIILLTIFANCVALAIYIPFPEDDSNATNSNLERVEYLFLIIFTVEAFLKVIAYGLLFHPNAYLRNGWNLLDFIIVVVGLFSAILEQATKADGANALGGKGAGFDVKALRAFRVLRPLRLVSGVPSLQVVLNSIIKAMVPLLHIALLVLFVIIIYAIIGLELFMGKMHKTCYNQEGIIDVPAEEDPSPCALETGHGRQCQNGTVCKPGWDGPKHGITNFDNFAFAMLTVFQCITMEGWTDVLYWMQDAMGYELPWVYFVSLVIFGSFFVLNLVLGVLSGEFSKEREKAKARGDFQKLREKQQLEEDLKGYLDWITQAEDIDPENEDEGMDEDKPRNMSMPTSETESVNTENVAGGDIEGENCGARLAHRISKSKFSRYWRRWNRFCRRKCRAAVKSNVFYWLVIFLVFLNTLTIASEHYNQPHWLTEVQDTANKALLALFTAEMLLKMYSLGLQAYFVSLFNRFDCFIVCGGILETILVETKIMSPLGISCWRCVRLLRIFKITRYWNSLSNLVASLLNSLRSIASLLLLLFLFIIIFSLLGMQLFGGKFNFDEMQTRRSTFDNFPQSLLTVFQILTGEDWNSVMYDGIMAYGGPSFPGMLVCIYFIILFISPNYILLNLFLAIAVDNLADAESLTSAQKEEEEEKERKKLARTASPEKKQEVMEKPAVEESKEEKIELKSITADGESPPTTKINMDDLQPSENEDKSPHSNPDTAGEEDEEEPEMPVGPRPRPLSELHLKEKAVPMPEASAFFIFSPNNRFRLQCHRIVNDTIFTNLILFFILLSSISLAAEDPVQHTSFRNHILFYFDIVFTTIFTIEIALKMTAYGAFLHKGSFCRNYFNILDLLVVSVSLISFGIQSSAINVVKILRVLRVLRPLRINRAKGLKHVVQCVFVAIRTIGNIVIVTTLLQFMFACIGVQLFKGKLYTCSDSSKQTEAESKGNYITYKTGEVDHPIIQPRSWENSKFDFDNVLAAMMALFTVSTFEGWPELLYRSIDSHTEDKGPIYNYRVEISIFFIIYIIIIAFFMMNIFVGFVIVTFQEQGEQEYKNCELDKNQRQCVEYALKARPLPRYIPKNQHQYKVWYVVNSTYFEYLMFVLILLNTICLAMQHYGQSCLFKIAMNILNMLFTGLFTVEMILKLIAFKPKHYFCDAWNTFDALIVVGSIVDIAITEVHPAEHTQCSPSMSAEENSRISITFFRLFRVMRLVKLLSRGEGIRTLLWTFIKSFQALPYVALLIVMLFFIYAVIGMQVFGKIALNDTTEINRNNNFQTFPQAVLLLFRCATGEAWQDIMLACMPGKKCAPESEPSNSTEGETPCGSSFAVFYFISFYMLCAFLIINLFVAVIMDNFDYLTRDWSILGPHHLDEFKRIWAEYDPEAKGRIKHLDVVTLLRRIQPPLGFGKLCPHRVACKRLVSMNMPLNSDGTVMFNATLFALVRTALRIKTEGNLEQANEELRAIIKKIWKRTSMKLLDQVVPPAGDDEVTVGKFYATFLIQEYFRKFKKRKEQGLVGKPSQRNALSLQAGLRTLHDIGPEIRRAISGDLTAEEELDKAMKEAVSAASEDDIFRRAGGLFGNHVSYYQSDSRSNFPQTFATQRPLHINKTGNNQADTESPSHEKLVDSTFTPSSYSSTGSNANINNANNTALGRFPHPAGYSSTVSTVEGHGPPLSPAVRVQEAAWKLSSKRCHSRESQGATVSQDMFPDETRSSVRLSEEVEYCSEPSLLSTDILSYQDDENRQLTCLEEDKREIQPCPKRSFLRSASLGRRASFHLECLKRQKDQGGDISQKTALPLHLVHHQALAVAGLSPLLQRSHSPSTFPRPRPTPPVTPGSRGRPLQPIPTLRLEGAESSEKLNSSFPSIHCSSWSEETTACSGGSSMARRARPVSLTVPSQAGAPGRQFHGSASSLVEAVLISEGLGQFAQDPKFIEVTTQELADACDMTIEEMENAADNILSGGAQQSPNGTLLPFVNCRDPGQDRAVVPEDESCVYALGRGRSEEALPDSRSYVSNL
T2 sequence (P54290 25-944 partner limits assumed): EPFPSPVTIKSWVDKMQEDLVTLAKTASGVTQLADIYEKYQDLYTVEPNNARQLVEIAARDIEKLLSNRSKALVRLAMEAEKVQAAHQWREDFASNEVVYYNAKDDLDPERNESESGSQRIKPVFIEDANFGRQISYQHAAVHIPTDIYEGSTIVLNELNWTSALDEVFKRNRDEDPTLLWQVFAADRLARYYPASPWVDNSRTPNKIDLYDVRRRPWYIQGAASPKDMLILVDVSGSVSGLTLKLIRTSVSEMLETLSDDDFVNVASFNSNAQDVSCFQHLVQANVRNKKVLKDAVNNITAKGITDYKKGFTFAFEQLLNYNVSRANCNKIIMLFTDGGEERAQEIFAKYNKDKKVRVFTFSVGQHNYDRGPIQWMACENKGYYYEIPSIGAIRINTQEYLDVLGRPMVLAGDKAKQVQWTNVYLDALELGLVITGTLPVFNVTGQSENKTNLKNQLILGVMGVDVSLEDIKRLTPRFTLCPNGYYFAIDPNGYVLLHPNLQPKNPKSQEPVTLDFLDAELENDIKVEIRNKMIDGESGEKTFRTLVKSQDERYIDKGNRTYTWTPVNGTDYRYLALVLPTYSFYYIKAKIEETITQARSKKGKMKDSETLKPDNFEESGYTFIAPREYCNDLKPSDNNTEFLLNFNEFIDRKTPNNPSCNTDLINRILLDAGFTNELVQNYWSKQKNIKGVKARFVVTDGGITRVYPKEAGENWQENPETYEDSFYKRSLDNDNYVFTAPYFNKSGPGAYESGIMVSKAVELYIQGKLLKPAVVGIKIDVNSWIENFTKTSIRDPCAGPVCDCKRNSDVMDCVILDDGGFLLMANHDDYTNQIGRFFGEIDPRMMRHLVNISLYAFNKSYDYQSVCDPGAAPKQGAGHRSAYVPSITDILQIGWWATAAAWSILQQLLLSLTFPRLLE
T2 sequence (P54290 945-1091 partner limits assumed): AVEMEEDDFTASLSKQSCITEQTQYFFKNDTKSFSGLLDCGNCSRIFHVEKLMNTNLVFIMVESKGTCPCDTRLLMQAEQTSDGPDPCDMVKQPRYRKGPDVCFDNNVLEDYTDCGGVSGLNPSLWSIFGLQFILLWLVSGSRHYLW
T2 sequence (P54287 whole entry partner): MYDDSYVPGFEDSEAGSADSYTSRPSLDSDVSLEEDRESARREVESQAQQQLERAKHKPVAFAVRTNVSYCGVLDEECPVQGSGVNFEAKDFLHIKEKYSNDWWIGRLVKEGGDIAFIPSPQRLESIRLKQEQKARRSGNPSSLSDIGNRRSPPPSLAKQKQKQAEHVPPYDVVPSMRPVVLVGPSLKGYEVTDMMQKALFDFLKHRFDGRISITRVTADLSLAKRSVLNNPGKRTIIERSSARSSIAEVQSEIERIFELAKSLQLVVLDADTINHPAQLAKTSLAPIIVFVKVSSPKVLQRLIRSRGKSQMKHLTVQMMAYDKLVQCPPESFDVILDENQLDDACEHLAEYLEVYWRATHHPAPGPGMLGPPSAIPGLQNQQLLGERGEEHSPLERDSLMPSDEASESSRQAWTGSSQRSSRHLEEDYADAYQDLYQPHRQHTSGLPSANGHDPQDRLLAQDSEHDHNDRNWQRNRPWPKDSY

On to `CC1=C(C(=O)O)C(c2cccc(C#N)c2)C(C(=O)NCC=Cc2ccccc2)=C(C)N1` (stereo not shown) [Example 10, 4-(3-cyanophenyl)-2,6-dimethyl-5-(3-phenyl-2-propene-1-ylcarbamoyl)-1,4-dihydropyridine-3-carboxylic acid], for which, at N-type calcium channel [1], the IC50 was 2.51 µM.

For `CC1=C(C(=O)O)C(c2cccc([N+](=O)[O-])c2)C(C(=O)NC/C=C/c2ccccc2)=C(C)N1` (stereo not shown) [Example 4, 2,6-dimethyl-4-(3-nitrophenyl)-5-(3-phenyl-2-propene-1-ylcarbamoyl)-1,4-dihydropyridine-3-carboxylc acid], the inhibition at 0.1 µM on L-type calcium channel (setting [3]) is -7%; on N-type calcium channel [2] it was 16%. Besides, the IC50 on L-type calcium channel is 0.914 µM; on N-type calcium channel [1] it was 1.58 µM.

On to `CC1=C(C(=O)O)C(c2ccc([N+](=O)[O-])cc2)C(C(=O)NCC=Cc2ccccc2)=C(C)N1` (stereo not shown) [Example 17, 2,6-dimethyl-4-(4-nitrophenyl)-5-[(3-phenyl-2-propene-1-yl)carbamoyl]-1,4-dihydropyridine-3-carboxylic acid], for which the results for the inhibition at 0.1 µM on L-type calcium channel (setting [3]) and on N-type calcium channel [2] were -6% and 16%, respectively. Further, the IC50 at L-type calcium channel is greater than 1 µM; on N-type calcium channel [1], 1.58 µM.

With `CC1=C(C(=O)O)C(c2cccc(Cl)c2)C(C(=O)NCCC(c2ccccc2)c2ccccc2)=C(C)N1` (stereo not shown) [Example 34, 4-(3-chlorophenyl)-2,6-dimethyl-5-(3,3-diphenylpropylcarbamoyl)-1,4-dihydropyridine-3-carboxylic acid], the IC50 at N-type calcium channel [1] is 0.631 µM.

As to `CC1=C(C(=O)O)C(c2cccc(Cl)c2)C(C(=O)NCC(=O)Nc2ccccc2)=C(C)N1` (stereo not shown) [Example 21, 4-(3-chlorophenyl)-2,6-dimethyl-5-(phenylcarbamoylmethylcarbamoyl)-1,4-dihydropyridine-3-carboxylic acid], the IC50 at N-type calcium channel [1] was 0.794 µM.

Regarding “(3-phenyl-2-propene-1-yl) 4-(3-chlorophenyl)-5-cyano-2,6-dimethyl-1,4-dihydropyridine-3-carboxylate [Example 12]”, at L-type calcium channel (setting [3]), the “L-type inhibition 10^−7 M (%)” value worked out at 21%. Besides, the IC50 on L-type calcium channel was 0.22 µM. For the same compound, the “N-type inhibition 0.1 uM (%)” value on N-type calcium channel [2] worked out at 24%. Also, the “N-type inhibition pIC50” value at N-type calcium channel [1] is recorded as 5.9.

Consider `CC1=C(C(=O)O)C(c2cccc(Cl)c2)C(C(=O)NCC=Cc2ccccc2)=C(C)N1` (stereo not shown) [Example 1, 4-(3-chlorophenyl)-2,6-dimethyl-5-(3-phenyl-2-propene-1-ylcarbamoyl)-1,4-dihydropyridine-3-carboxylic acid], for which the inhibition at 0.1 µM on L-type calcium channel (setting [3]) came to 19%; at N-type calcium channel [2] it was 35%. The values for the IC50 on L-type calcium channel and on N-type calcium channel [1] were greater than 1 µM and 5.01 µM, respectively.

Broadly, the inhibition is the relative decrease from the control value, in per cent.

The values above are taken from patent publication US6350762B1, “Dihydropyridine derivative” (Ajinomoto Co., Inc., priority 1997, dated 2002).
